The record followed here is PubChem BioAssay AID1361 (SRMLSC, 2008).

As a reminder, the IC50 is the concentration needed to halve the response being measured.

A short description of this test: mitochondrial fusion inhibitors, confirmation, cell-based, chemical genetic, wild-type and mutant (AID 1361). The conditions noted are these: Cell-based mitochondrial fusion phenotype, imaging.
[1] abbreviates: mutant cells, measured here: mutant cell line IC50.

Each structure is given as a SMILES string. Activity calls are given as the source filed them. How the calls were made is not given here. Where only a bound is given, the exact number is not on record here.

As for `Cc1nc(-c2cccc(NS(=O)(=O)c3cccc4ccccc34)c2)cs1`, the IC50 (WT cells) was 15.9 µM and the IC50 under setting [1] was over 25 µM.
Regarding `CN(C(=S)Nc1ccc(SC(F)F)cc1)c1ccc(O)cc1`, the IC50 runs as follows: (WT cells) > 25 µM (inactive); under setting [1], over 25 µM.
Take `N#CC1=C(N)SC(N)=C(C#N)C1c1c(Cl)cccc1Cl`: the IC50 reads like this: (WT cells) > 25 µM (inactive); under setting [1], over 25 µM.
For `N#Cc1c(NC(=S)NC(=O)C2CCCC2)sc2c1CCCCC2`, the IC50 (WT cells) is 10.5 µM and the IC50 under setting [1] was over 25 µM.
Regarding `CC1=C(C#N)C(NC(=O)c2ccc(C)cc2)(C(F)(F)F)C(=O)N1` (stereo not drawn), the IC50 was > 25 µM (inactive) (WT cells) and over 25 µM under setting [1].
On to `Cc1ccc(N(CC(O)Cn2c3ccccc3c3ccccc32)S(C)(=O)=O)c(C)c1` (stereo not drawn), for which the IC50 is, setting by setting: (WT cells) 18.8 µM; under setting [1], over 25 µM.
As for `COc1ccc(NC(=S)NNC(=O)COc2ccc(Cl)cc2Cl)cc1`, the IC50 runs as follows: (WT cells) 19.5 µM; under setting [1], over 25 µM.
With `CCCCNC(=S)N(C)/N=C/c1ccc2c(c1)OCO2`, the IC50 runs as follows: (WT cells) 25 µM (inactive); under setting [1], over 25 µM.
Turning to `COc1ccc(Cn2nc(-c3ccccc3)c(N3CCCCC3)cc2=O)cc1`, the IC50 is, setting by setting: (WT cells) 10.3 µM; under setting [1], over 25 µM.
On to `c1ccc(-c2nc(N3CCCCC3)nc3ccccc23)cc1`, for which the IC50 runs as follows: (WT cells) 18.3 µM; under setting [1], 19.4 µM.
For `COc1ccc(Cc2nn[nH]n2)cc1`, the IC50 (WT cells) was > 25 µM (inactive) and the IC50 under setting [1] is over 25 µM.
Take `O=C(CSc1nnnn1-c1ccccc1)NCc1cccs1`: the IC50 is > 25 µM (inactive) (WT cells) and over 25 µM under setting [1].
For the compound `CCCCc1nc2ccccc2c(=O)n1-c1ccc(Cl)cc1[N+](=O)[O-]`, the IC50 is > 25 µM (inactive) (WT cells) and over 25 µM under setting [1].
In the case of `CC1CC(C)CN(C(=O)c2cc3cc(Br)cc(Br)c3o2)C1` (stereo not drawn), the IC50 is, setting by setting: (WT cells) 13.7 µM; under setting [1], 22.5 µM.
Take `CCOC(=O)N1CCN(C(=O)CN(C)S(=O)(=O)c2ccc3c(c2)C(C)(C)C(=O)N3C)CC1`: the IC50 runs as follows: (WT cells) > 25 µM (inactive); under setting [1], over 25 µM.
In the case of `Cc1cccc(N2CCN(C(=O)COc3ccc4c(c3)CCC4)CC2)c1C`, the IC50 reads like this: (WT cells) 14.8 µM; under setting [1], over 25 µM.
Turning to `CN(CC(=O)O/N=C(\N)c1cccc([N+](=O)[O-])c1)S(=O)(=O)c1ccccc1`, the IC50 runs as follows: (WT cells) > 25 µM (inactive); under setting [1], over 25 µM.
For the compound `O=C(CNC(=S)N(Cc1ccccc1)Cc1ccccc1F)NCc1ccccc1`, the IC50 by setting is: (WT cells) 17.7 µM; under setting [1], over 25 µM.
The matching figures for `O=C(CNCc1ccccc1Cl)Nc1ccccc1N1CCCCC1`: 13.2 µM and over 25 µM.
Turning to `Cc1cc(N=Cc2cc(Cl)ccc2O)no1`, the IC50 runs as follows: (WT cells) > 25 µM (inactive); under setting [1], over 25 µM.
For `Clc1ccc(C(c2nnnn2C2CCCCC2)N(Cc2cccnc2)Cc2ccco2)cc1` (stereo not drawn), the IC50 is 15.5 µM (WT cells) and over 25 µM under setting [1].
For `Cc1cc(C)cc(NS(=O)(=O)c2ccc(Oc3ncc(C(F)(F)F)cc3Cl)cc2)c1`, the IC50 runs as follows: (WT cells) 10.9 µM; under setting [1], over 25 µM.
With `O=[N+]([O-])c1cc(C(F)(F)F)ccc1NCCc1c[nH]c2ccccc12`, the IC50 is 13.4 µM (WT cells) and 18.9 µM under setting [1].
As to `Cc1ccccc1/C(N)=N/OC(=O)N1c2ccccc2Sc2ccccc21`, the IC50 reads like this: (WT cells) 16.6 µM; under setting [1], 22 µM.
As for `COc1ccc(/C=N/N(Cc2ccccc2)c2ccccc2)cc1O`, the IC50 runs as follows: (WT cells) 11.6 µM; under setting [1], over 25 µM.
Take `O=C(NC(=S)NCCC1=CCCCC1)c1ccccc1Br`: the IC50 by setting is: (WT cells) 20.9 µM; under setting [1], over 25 µM.
Regarding `O=C(COC(=O)c1ccccn1)Nc1cccc(Cl)c1Cl`, the IC50 by setting is: (WT cells) > 25 µM (inactive); under setting [1], over 25 µM.
For `N#CCC(=O)N/N=C/c1cc(-c2ccccc2)n(-c2ccc(Cl)cc2)c1-c1ccccc1`, the 50% inhibitory concentration (IC50) runs as follows: (WT cells) 4.18 µM; under setting [1], over 25 µM.
Turning to `C=CCn1c(N)c(C(=O)OCC(C)C)c2nc3ccccc3nc21`, the IC50 (WT cells) is > 25 µM (inactive) and the IC50 under setting [1] is over 25 µM.
With `Cc1nc2c(ccc3nc(NC(=O)Cc4ccccc4)sc32)s1`, the IC50 is, setting by setting: (WT cells) 12.4 µM; under setting [1], over 25 µM.
In the case of `Cc1cc2c3c(c1)C1(SCC(=O)N1c1ccc(F)cc1)C(=O)N3C(C)(C)CC2C` (stereo not drawn), the IC50 by setting is: (WT cells) > 25 µM (inactive); under setting [1], over 25 µM.
On to `Cc1nn(-c2ccccc2)c2sc(C(=O)N(Cc3ccco3)C(C)C(=O)NC(C)(C)C)cc12` (stereo not drawn), for which the IC50 was 7.45 µM (WT cells) and 19.6 µM under setting [1].
For `Cc1ccc(OCCSc2nc(NC(C)C)nc(NC(C)C)n2)cc1`, in that order: 12.3 µM and over 25 µM.
With `O=C(COC(=O)Cc1c(Cl)cccc1Cl)Nc1ccccc1-c1ccccc1`, the IC50 runs as follows: (WT cells) 13.3 µM; under setting [1], over 25 µM.
